The values that follow come from article PMC9692097, “Immunosuppressants Tacrolimus and Sirolimus revert the cardiac antifibrotic properties of p38-MAPK inhibition in 3D-multicellular human iPSC-heart organoids” (Frontiers in Cell and Developmental Biology, 2022).

For one data set, the system named is RAS. The arrangement: method as in earlier work. The conditions noted are these: RAS antagonist, ref Reif et al., 1999, Katzav et al., 2001, Clarke et al., 2003, 2004, Kafri et al., 2005, Nevo et al., 2011, Rokni et al., 2022; cited from earlier work.
Data set [1] in a line: Cytotoxic assay in cardiac fibroblasts (crystal violet, 96 h). Particulars: human, human ventricular cardiac fibroblasts (NHCF-V), NHCF-V cell line, read-out: IC50 (cytotoxicity, CF viability). Type of data set: cell-based. The method, then:
SB202190, Tacrolimus, and Sirolimus were freshly and individually prepared in DMSO for each individual experiment. Cardiac fibroblasts were seeded individually in 96-well plates (5,000 cells per well). The treatment effectiveness was assayed after applying reducing concentrations in a 1:2 fixed ratio to cycling cells in the exponential phase. All treatments were assessed within reducing doses of SB202190, Tacrolimus, or Sirolimus in monotherapy or combination in fixed proportions a day after the seeding. The proliferation viability was determined by crystal violet after 96 h. Cytotoxicity profiles were measured by absorbance at 595 nm using a microplate reader; then, IC50 values were estimated using GraphPad Prism 7 software.

In data set [2] the test system is iPSC-derived human heart organoids (hHOs). Kind of data set: Cardiotoxicity MTT assay in iPSC-derived human heart organoids (96 h). The data set is classed as cell-based. The conditions noted are these: hHOs day 15, MTT, read-out: IC50 (hHO cellular viability). The procedure: SB202190, Tacrolimus, and Sirolimus were prepared alone or in combinations mixed in DMSO for each experiment. hHOs were differentiated and seeded separately in low-binding 96-w plates. The effectiveness of the treatment was measured after the usage of decreasing concentrations in a 1:2 ratio to day 15 of developing heart organoids. All treatments were applied by reducing dosages of SB202190, Tacrolimus, or Sirolimus in monotherapy or combination. The proliferation capacity as a functional assay was determined using an MTT assay after 96 h (4 days). Cytotoxicity profiling was drafted by obtaining absorbance metrics at 595 nm using a particular microplate reader; then, IC50 values were calculated using GraphPad Prism 7.

The subject of the next data set is hHO spontaneous beating. The experiment in a line: Organoid beating evaluation (beating count vs untreated organoid). The conditions noted are these: hHOs, 96 h. The data set is classed as cell-based, human. From the text: For organoid beating evaluation, we measured the beating count at 10 s intervals and then compared it to the beating count of the untreated organoid for each case in biological triplicates.

Data set [3] deals with COL1A1. Kind of data set: COL1A1 expression in NHCF-V cardiac fibroblasts (western blot, immunocytochemistry). The data set is classed as cell-based, human. The conditions noted are these: for COL1A1 protein expression: 5 ng/ml TGF-β1 for 24 h, SB202190 10 μM, TAC 10 μM, Sirolimus 200 nM. A general note: In western blotting, separated proteins are transferred to a membrane and probed.
Experimental: Cells were fixed by 4% PFA treatment for 15 min and stored in PBS at 4°C. Blocking was performed for 30–45 min in a blocking buffer containing 1% BSA, 0.5% Triton X-100 and 0.1 M glycine in PBS. After washing three times with PBS, primary antibody anti-Collagen I (1:200, ab34710, Abcam) was added to the blocking buffer (w/o glycine) and incubated overnight at 4°C. The next day, cells were washed three times with PBS, and secondary antibody donkey anti-rabbit Alexa Fluro 594 (1:1000, A21207, Invitrogen) was added in 1% BSA-PBS for 2 h at RT. After washing three times with PBS, 1:10,000 Hoechst 33342 was added for nuclear counterstaining. Images were taken with Keyence.
After 3 days of treatment on unstimulated CFs, we treated cells with 5 ng/ml of TGF-β1 in combination with the inhibitors for another 24 h to recapitulate pathological conditions of heart disease and induced a forced expression of ECMs, with a particular focus on COL1A1 as a major component of the Collagen type I.

Data set [4] concerns COL1A1. Kind of data set: COL1A1 expression in TGF-β1 stimulated hHOs (western blot, immunocytochemistry). The data set is classed as cell-based, human. Particulars: 5 ng/ml TGF-β1 for 24 h, SB202190 10 μM, TAC 10 μM, Sirolimus 200 nM. The method, then: Immunofluorescence staining of hHOs was conducted as previously described. hHOs were fixed by 4% PFA solution for 45–60 min at room temperature and incubated in blocking/permeabilization solution containing 10% normal donkey serum (Abcam), 0.5% Triton X-100 (nacalai tesque) and 0.5% BSA (nacalai tesque) at 4°C overnight. Subsequently, hHOs were stained with primary and secondary antibodies in PBS containing 1% normal donkey serum, 0.5% Triton X-100 and 0.5% BSA, respectively. Nuclei were stained with Hoechst 33342 (1:1000) before mounting. A confocal laser scanning microscope (Olympus FV3000) was used for fluorescent observation. Primary antibodies used are listed as follows: anti-Vimentin (1:200, ab11256, Abcam); anti-Collagen I (1:200, ab34710, Abcam); anti-WT1 (1:200, ab89901, Abcam); anti-ZO-1 (1:200, 33-9100, Invitrogen); anti-CD31/PECAM1 (1:50, ab28364, Abcam); anti-Cardiac Troponin T (1:200, ab8295, Abcam); anti-NFAT2 (1:200, ab25916, Abcam); anti-CD90/THY1 (1:200, ab133350, Abcam). […]
Cells were lysed in M-PER Mammalian Protein Extraction Reagent (78501, Thermo Scientific) buffer, and hHOs were lysed in T-PER Tissue Protein Extraction Reagent (78510, Thermo Scientific). The amount of protein was determined by Bradford assay using BSA as a standard. […]

Data set [5] has as its system mTORC1 downstream targets p4E-BP1 and pS6K. The experiment in a line: Western blot for pathway targets in NHCF-V. The data set is classed as cell-based, human. The conditions noted are these: 200 nM. The method, then: (§1) Cells were lysed in M-PER Mammalian Protein Extraction Reagent (78501, Thermo Scientific) buffer, and hHOs were lysed in T-PER Tissue Protein Extraction Reagent (78510, Thermo Scientific). The amount of protein was determined by Bradford assay using BSA as a standard. The primary antibodies were purchased from commercial sources as follows: anti-phospho-S6 Ribosomal Protein (1:1000, 5364, CST); anti-phospho-4E-BP1 (1:1000, 2855, CST); anti-4E-BP1 (1:1000, 9644, CST); anti-phospho-p38 (1:1000, 4631, CST); anti-p38 (1:1000, 9212, CST); anti-phospho-AKT (1:1000, 9271, CST); anti-Collagen I (1:1000, ab34710, abcam); anti-IL-11 (1:1000, ab76589, abcam); anti-β-actin (1:1000, A5441, Sigma). The secondary antibodies used are as follows: goat anti-rabbit IgG (HRP) (1:5000, sc-2054, Santa cruz), and anti-mouse IgG (HRP) (1:5000, 7076, CST).

A further data set deals with IL-11 and phospho-p38. Kind of data set: Western blot for IL-11 and phospho-p38 in TGF-β1 stimulated hHOs. Type of data set: cell-based, human. The procedure: as §1

Bounds are passed on as bounds.

Regarding `CC(C)=CCC/C(C)=C/CC/C(C)=C/CSc1ccccc1C(=O)O` [FTS, Farnesythiosalicylic acid], the “inflammation and fibrosis in animal models” value in the data set on RAS was “decreasing inflammation and fibrosis in animal models”.

One may read the IC50 as the concentration that gives 50% inhibition. For `Oc1ccc(-c2nc(-c3ccncc3)c(-c3ccc(F)cc3)[nH]2)cc1` [SB202190], in data set [1], the half-inhibitory concentration (IC50) at 96 h was 13.9 µM. Also, the IC50 in data set [2] was 72.4 µM. Also, the “safe dosages preserving average beating rates compared to untreated organoids (from ... downwards)” value in the data set on hHO spontaneous beating is at most 100 µM. The COL1A1 protein expression result in the data set with COL1A1 [3] is reported as “independent effect in reducing COL1A1 protein expression”. In addition, the “TGF-β1 driven COL1A1 expression / ECM depositions” value in the data set on COL1A1 [4] is on record as “effectively reduced TGF-β1 driven COL1A1 expression”.

Take `CO[C@H]1C[C@@H]2CC[C@@H](C)[C@@](O)(O2)C(=O)C(=O)N2CCCC[C@H]2C(=O)O[C@H]([C@H](C)C[C@@H]2CC[C@@H](O)[C@H](OC)C2)CC(=O)[C@H](C)/C=C(\C)[C@@H](O)[C@@H](OC)C(=O)[C@H](C)C[C@H](C)/C=C/C=C/C=C/1C` [Sirolimus]: in data set [1], the IC50 at 96 h came to 3.54 ± 0.2 µM. Further, in data set [2], the half-inhibitory concentration (IC50) was determined as 5.01 ± 0.4 µM. In the data set with hHO spontaneous beating, the “safe dosages preserving average beating rates compared to untreated organoids (from ... downwards)” value is at most 2.5 µM. For the same molecule, the COL1A1 protein expression result with COL1A1 [3] is “independent effect in reducing COL1A1 protein expression”. In data set [5], the “inhibition of mTORC1 downstream targets p4E-BP1 and pS6K” value was “inhibit the mTORC1 downstream targets p4E-BP1 and pS6K”. Further, the “TGF-β1 driven COL1A1 expression / ECM depositions” value in the data set on COL1A1 [4] was “this phenotype is lost in heart organoids”. In the data set on IL-11 and phospho-p38, the “levels of IL-11 and phospho-p38” value is “rescued levels of IL-11 and phospho-p38”.

On to `C=CC[C@@H]1/C=C(\C)C[C@H](C)C[C@H](OC)[C@H]2O[C@@](O)(C(=O)C(=O)N3CCCC[C@H]3C(=O)O[C@H](/C(C)=C/[C@@H]3CC[C@@H](O)[C@H](OC)C3)[C@H](C)[C@@H](O)CC1=O)[C@H](C)C[C@@H]2OC` [Tacrolimus], for which, in data set [1], the IC50 at 96 h is 12.6 µM. In data set [2], the IC50 was determined as 19.9 µM. Further, the “safe dosages preserving average beating rates compared to untreated organoids (from ... downwards)” value in the data set on hHO spontaneous beating was at most 12 µM. Moreover, in the data set on COL1A1 [3], the COL1A1 protein expression entry was “no effect”. In the data set with COL1A1 [3] (unstimulated, western blot), the “COL1A1 levels in TGF-β1 unstimulated condition” value is given as “mildly increase COL1A1 levels”.
